Measured values as given in patent publication US20230398130A1, “METHODS AND COMPOSITIONS FOR DIFFERENTIATING STEM CELLS” (Massachusetts Institute of Technology, priority 2020, published 2023).

How the values were obtained:
ISC-enriched organoids [1] = test: Primary screen, 384-well 2.5-D organoid differentiation (ENR+CD, 6 days): basal lysozyme secretion (LYZ.NS); format: cell-based, murine; conditions: for Dose.FC.LYZ.NS: FC vs plate median; for Z.LYZ.NS: standard z score of FC; for SSMD.LYZ.NS: strictly standardized mean difference
Text: (§1) High-throughput screening.

ISC-enriched organoids [2] = test: Primary screen, 384-well 2.5-D organoid differentiation (ENR+CD, 6 days): carbachol-induced lysozyme secretion (LYZ.S); format: cell-based, murine; conditions: primary screen; for Dose.FC.LYZ.S: FC vs plate median; for Z.LYZ.S: standard z score; for SSMD.LYZ.S: strictly standardized mean difference
Text: as §1

ISC-enriched organoids [3] = test: Primary screen, 384-well 2.5-D organoid differentiation (ENR+CD, 6 days, Target Selective Inhibitor Library, vs whole-plate median): ATP (CellTiter-Glo 3D, CTG); conditions: for Dose.FC.CTG: FC vs plate median; for SSMD.CTG: strictly standardized mean difference
[4] = primary screen, dose 0.08 uM, ENR+CD 6 days
[5] = primary screen, dose 0.40 uM, ENR+CD 6 days
[6] = primary screen, dose 2.00 uM, ENR+CD 6 days
[7] = primary screen, dose 10.00 uM, ENR+CD 6 days
[8] = primary screen, 1st of the 4 dose lines of the treatment (dose not given)
[9] = primary screen, 2nd of the 4 dose lines of the treatment (dose not given)
[10] = primary screen, 3rd of the 4 dose lines of the treatment (dose not given)
[11] = primary screen, 4th of the 4 dose lines of the treatment (dose not given)
[12] = 1st of the 4 dose lines of the treatment (dose not given)
[13] = 2nd of the 4 dose lines of the treatment (dose not given)
[14] = 3rd of the 4 dose lines of the treatment (dose not given)
[15] = 4th of the 4 dose lines of the treatment (dose not given)
[16] = Dose 0.08 uM, primary screen, standard z score
[17] = Dose 0.40 uM, primary screen, standard z score
[18] = Dose 2.00 uM, primary screen, standard z score
[19] = Dose 10.00 uM, primary screen, standard z score

SMILES	SSMD.LYZ.NS (ISC-enriched organoids [1]; [8])	SSMD.LYZ.NS (ISC-enriched organoids [1]; [9])	SSMD.LYZ.NS (ISC-enriched organoids [1]; [10])	SSMD.LYZ.NS (ISC-enriched organoids [1]; [11])	Z.LYZ.S (ISC-enriched organoids [2]; [12])	Z.LYZ.S (ISC-enriched organoids [2]; [13])	Z.LYZ.S (ISC-enriched organoids [2]; [14])	Z.LYZ.S (ISC-enriched organoids [2]; [15])	SSMD.LYZ.S (ISC-enriched organoids [2]; [12])	SSMD.LYZ.S (ISC-enriched organoids [2]; [13])	SSMD.LYZ.S (ISC-enriched organoids [2]; [14])	SSMD.LYZ.S (ISC-enriched organoids [2]; [15])	Z.CTG (ISC-enriched organoids [3]; [16])	Z.CTG (ISC-enriched organoids [3]; [17])	Z.CTG (ISC-enriched organoids [3]; [18])	Z.CTG (ISC-enriched organoids [3]; [19])	SSMD.CTG (ISC-enriched organoids [3]; [8])	SSMD.CTG (ISC-enriched organoids [3]; [9])	SSMD.CTG (ISC-enriched organoids [3]; [10])	SSMD.CTG (ISC-enriched organoids [3]; [11])	further results
CC(C)CCN1c2nc(Nc3cc(F)c(O)c(F)c3)ncc2N(C)C(=O)C1C (stereo not drawn) [BI-D1870]																					Dose.FC.LYZ.NS (ISC-enriched organoids [1]; [4]): 0.141 log 2 fold change; Z.LYZ.NS (ISC-enriched organoids [1]; primary screen, dose 0.08 uM): 1.225; Dose.FC.LYZ.NS (ISC-enriched organoids [1]; [5]): 0.126 log 2 fold change; Z.LYZ.NS (ISC-enriched organoids [1]; primary screen, dose 0.40 uM): 1.099; Dose.FC.LYZ.NS (ISC-enriched organoids [1]; [6]): −0.066 log 2 fold change; Z.LYZ.NS (ISC-enriched organoids [1]; primary screen, dose 2.00 uM): −0.574; Dose.FC.LYZ.NS (ISC-enriched organoids [1]; [7]): −0.285 log 2 fold change; Z.LYZ.NS (ISC-enriched organoids [1]; primary screen, dose 10.00 uM): −2.483; Dose.FC.LYZ.S (ISC-enriched organoids [2]; dose 0.08 uM, ENR+CD 6 days): 0.162 log 2 fold change; Dose.FC.LYZ.S (ISC-enriched organoids [2]; dose 0.40 uM, ENR+CD 6 days): 0.158 log 2 fold change; Dose.FC.LYZ.S (ISC-enriched organoids [2]; dose 2.00 uM, ENR+CD 6 days): 0.008 log 2 fold change; Dose.FC.LYZ.S (ISC-enriched organoids [2]; dose 10.00 uM, ENR+CD 6 days): −0.378 log 2 fold change; Dose.FC.CTG (ISC-enriched organoids [3]; [4]): 0.186 log 2 fold change; Z.CTG (ISC-enriched organoids [3]; primary screen, dose 0.08 uM, standard z score of FC): 0.444; Dose.FC.CTG (ISC-enriched organoids [3]; [5]): 0.029 log 2 fold change; Z.CTG (ISC-enriched organoids [3]; primary screen, dose 0.40 uM, standard z score of FC): 0.069; Dose.FC.CTG (ISC-enriched organoids [3]; [6]): −0.012 log 2 fold change; Z.CTG (ISC-enriched organoids [3]; primary screen, dose 2.00 uM, standard z score of FC): −0.028; Dose.FC.CTG (ISC-enriched organoids [3]; [7]): −0.700 log 2 fold change; Z.CTG (ISC-enriched organoids [3]; primary screen, dose 10.00 uM, standard z score of FC): −1.673
CC[C@H](C)C(=O)O[C@H]1C[C@@H](C)C=C2C=C[C@H](C)[C@H](CC[C@@H]3C[C@@H](O)CC(=O)O3)[C@H]21 [Lovastatin]	0.014	−0.516	−1.430	−1.590	−0.147	−0.320	−2.572	−2.645	−0.128	−0.236	−1.424	−1.288	−0.769	−1.174	−2.803	−3.322	−0.609	−1.511	−2.978	−1.911	
COc1ccc(CNCc2cccc3ccccc23)cc1.Cl [ML133 HCl]	0.282	−0.131	0.740	−0.152	0.404	−0.118	0.565	−0.089	0.324	−0.129	0.368	−0.088					−0.026	−0.437	−0.560	−0.133	Dose.FC.LYZ.NS (ISC-enriched organoids [1]; Dose 0.08 uM, primary screen): 0.030 log 2 fold change; Z.LYZ.NS (ISC-enriched organoids [1]; Dose 0.08 uM): 0.261; Dose.FC.LYZ.NS (ISC-enriched organoids [1]; Dose 0.40 uM, primary screen): −0.013 log 2 fold change; Z.LYZ.NS (ISC-enriched organoids [1]; Dose 0.40 uM): −0.116; Dose.FC.LYZ.NS (ISC-enriched organoids [1]; Dose 2.00 uM, primary screen): 0.073 log 2 fold change; Z.LYZ.NS (ISC-enriched organoids [1]; Dose 2.00 uM): 0.633; Dose.FC.LYZ.NS (ISC-enriched organoids [1]; Dose 10.00 uM, primary screen): −0.018 log 2 fold change; Z.LYZ.NS (ISC-enriched organoids [1]; Dose 10.00 uM): −0.155; Dose.FC.LYZ.S (ISC-enriched organoids [2]; Dose 0.08 uM): 0.062 log 2 fold change; Dose.FC.LYZ.S (ISC-enriched organoids [2]; Dose 0.40 uM): −0.018 log 2 fold change; Dose.FC.LYZ.S (ISC-enriched organoids [2]; Dose 2.00 uM): 0.087 log 2 fold change; Dose.FC.LYZ.S (ISC-enriched organoids [2]; Dose 10.00 uM): −0.014 log 2 fold change; Dose.FC.CTG (ISC-enriched organoids [3]; Dose 0.08 uM, primary screen): −0.009 log 2 fold change; Z.CTG (ISC-enriched organoids [3]; Dose 0.08 uM, standard z score of FC): −0.023; Dose.FC.CTG (ISC-enriched organoids [3]; Dose 0.40 uM, primary screen): −0.151 log 2 fold change; Z.CTG (ISC-enriched organoids [3]; Dose 0.40 uM, standard z score of FC): −0.360; Dose.FC.CTG (ISC-enriched organoids [3]; Dose 2.00 uM, primary screen): −0.247 log 2 fold change; Z.CTG (ISC-enriched organoids [3]; Dose 2.00 uM, standard z score of FC): −0.591; Dose.FC.CTG (ISC-enriched organoids [3]; Dose 10.00 uM, primary screen): −0.040 log 2 fold change; Z.CTG (ISC-enriched organoids [3]; Dose 10.00 uM, standard z score of FC): −0.096
CCOC(=O)N1CCC(=C2c3ccc(Cl)cc3CCc3cccnc32)CC1 [Loratadine]	0.098	−0.004	−0.783	−0.977	−0.490	0.069	−0.959	−0.956	−0.535	0.082	−0.811	−1.029	−0.697	0.347	−0.488	−0.287	−0.683	0.535	−0.609	−0.360	
